Laboratory results as given in patent US9532994B2, “Agents and methods for enhancing bone formation by oxysterols in combination with bone morphogenic proteins” (THE REGENTS OF THE UNIVERSITY OF CALIFORNIA, priority 2003, dated 2017).

Columns and labels:
Type in all cases: cell-based, mouse
ERK2 = experiment: Western blot for pERK or ERK in M2 cells; details: 5 μM 20S for 1, 4, or 8 hours (FIG. 10A)
Method: (§1) Western blot analysis—After treatments, cells were lysed in lysis buffer, protein concentrations determined using the Bio-Rad protein assay (Hercules, Calif. U.S.A.), and SDS-PAGE performed as previously described. Probing for native and phosphorylated ERKs was performed as previously reported.
(§2) (A) M2 cells at confluence were pretreated for four hours with RPMI containing 1% FBS, followed by treatment with control vehicle or 5 μM 20S oxysterol for 1, 4, or 8 hours. Next total cell extracts were prepared and analyzed for levels of native or phosphorylated ERK (pERK) using specific antibodies as previously described. Data from a representative of four experiments are shown, each treatment shown in duplicate samples. (B) M2 cells at confluence were pretreated for 2 hours with control vehicle (C) or 20 μM PD98059 (PD) in osteogenic medium as previously described. Next, a combination of 22R and 20S oxysterols (RS, 5 μM each) were added to appropriate wells as indicated. After 10 days of incubation, matrix mineralization was quantified by the ^45Ca incorporation assay as previously described. Data from a representative of three experiments are reported as the mean±SD of quadruplicate determinations, normalized to protein concentration (p<0.01 for RS vs. RS+PD). […] After 10 days, adipocytes were visualized by oil Red O staining and quantified by light microscopy as previously described. […]

ERK1 = experiment: Western blot for pERK or ERK in M2 cells; details: 5 μM 20S for 1, 4, or 8 hours (FIG. 10A)
Method: as §1, §2

adipocyte P2 gene (aP2) = experiment: Northern blotting for adipocyte P2 gene in M2 cells; details: 10 μM Tro with 10 μM 20S, 10 days (FIGS. 7C and D)
Method: RNA isolation and Northern blot analysis - Following treatment of cells under appropriate experimental conditions, total RNA was isolated using the RNA isolation kit from Stratagene (La Jolla, Calif., U.S.A.). Total RNA ([…]) was run on a 1% agarose/formaldehyde gel and transferred to Duralon-UV membranes (Strategene, CA, U.S.A.) and cross-linked with UV light. The membranes were hybridized overnight at 60° C. with ^32P-labeled mouse osteocalcin cDNA probe, mouse lipoprotein lipase (LPL), mouse adipocyte protein 2 (aP2) PCR-generated probes, human 28S or 18S rRNA probes obtained from Geneka Biotechnology (Montreal, Quebec, Canada) and Maxim Biotech (San Francisco, CA, U.S.A.), respectively. […] The extent of gene induction was determined by densitometry.
Test 2: (A) M2 cells at confluence were treated in RPMI containing 10% FBS with control vehicle or 10 μM troglitazone (Tro) in the absence or presence of 10 μM 20S or 22S oxysterols. After 10 days, adipocytes were visualized by oil Red O staining and quantified by light microscopy, shown in (B). […] After 10 days, total RNA was isolated and analyzed for lipoprotein lipase (LPL), adipocyte P2 gene (aP2) or 18S rRNA expression by Northern blotting as described (Ref). […]

`CC(C)CCC[C@](C)(O)[C@H]1CC[C@H]2[C@@H]3CC=C4C[C@@H](O)CC[C@]4(C)[C@H]3CC[C@@]21C` [20S, 20(S)-hydroxycholesterol] was tested, and the “activation of ERK2” value (ERK2) was “sustained activation”, the “activation of ERK1” value (ERK1) was “sustained activation” and the “expression of adipocyte P2 gene (aP2)” value (adipocyte P2 gene (aP2)) was “inhibition of the expression”.
